# Tested on: U-2 OS (ATCC HTB-96) human osteosarcoma cell line
# Test: Timelapse imaging determination of sequential intermitotic times (IMT1, IMT2) in cell lineages
# Format: cell-based
# Settings: U-2 OS lineages from progenitors exposed to 10 μM topotecan for 1 h
# Description: Human osteosarcoma cell line (U-2 OS (ATCC HTB-96)23) derived from a person were used. The cells were maintained at 37° C. and 5% CO2 using standard tissue culture techniques. Media used was McCoys 5A modified (Sigma) supplemented with 2 mM glutamine, 100 units/ml penicillin, 100 μg/ml streptomycin and 10% fetal calf serum. The cells were seeded onto tissue culture plastic, PDMS layer with and without PDMS microtrench arrays and placed in a six-well multi-well dish (10^4 cells per ml) and left to establish for 24 hours. Post-24 hours incubation the culture dish was then immediately placed onto a timelapse imaging instrument designed to capture transmission phase images from multi-well plates. An Axiovert 100 microscope (Carl Zeiss, Welwyn Garden City, UK) was fitted with an incubator for 37° C./5% CO2 maintenance (Solent Scientific, Portsmouth, UK), and an ORCA-ER CCD camera (Hamamatsu, Reading, UK). All images were collected with a x10 (PH1) apochromat objective lens providing a full view of each microtrench format. Sequences were captured sampling at 15 min, and for three fields per treatment regime (using AQM, Kinetic Imaging, Nottingham, UK). MetaMorph software (Molecular Devices, California) was used to view the stacked image in sequence as for each experiment the images were stacked and saved as *.stk format. […]
compound,measurement,setting,value
CC[C@@]1(O)C(=O)OCc2c1cc1n(c2=O)Cc2cc3c(CN(C)C)c(O)ccc3nc2-1 [topotecan],IMT2 (av ± sd),time between the division generating daughters and the division generating granddaughters,22.9 ± 5.5
same,IMT1 (av ± sd),time between the division generating the mother cell and the division generating two daughters,24 ± 4.4
